Measurements: patent US20230085307A1, “PYRIDAZINONE COMPOUND AND HERBICIDE” (NISSAN CHEMICAL CORPORATION, priority 2019, published 2023)

What was measured:
barnyard grass [1] = assay: Test Example 3: herbicidal effect by foliage application, Wagner pot (Table 18, symbol H); type: in vivo, barnyard grass (Echinochloa crus-galli); conditions: 320 g/ha
Outline: (§1)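 Plants were sown in alluvial soil held under 0.1–0.5 cm standing water and grown 14 days in a greenhouse at 25–30 °C. An emulsifiable formulation, water-diluted to the set dose, was then sprayed onto the foliage, and effects were scored three weeks later using previously defined criteria.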

Chinese sprangletop = assay: Test Example 3: herbicidal effect by foliage application, Wagner pot (Table 18, symbol D); type: in vivo, chinese sprangletop (Leptochloa chinensis); conditions: 320 g/ha
Outline: as §1

rice flat sedge = assay: Test Example 3: herbicidal effect by foliage application, Wagner pot (Table 18, symbol E); type: in vivo, rice flat sedge (Cyperus iria); conditions: 320 g/ha
Outline: as §1

southern crabgrass [2] = assay: Test Example 4: herbicidal effect by soil treatment (Table 19, symbol F); type: in vivo, southern crabgrass (Digitaria ciliaris); conditions: AAH 320 g/ha
Outline: (§2)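 Three weeks of greenhouse growth at 25° C. to 30° C. followed a uniform surface spray of water-diluted emulsion at a predetermined herbicide amount. Seeds had been sown beforehand under about 1.5 cm of sterilized diluvial soil. Grading followed criteria set out in an earlier test.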

green foxtail [3] = assay: Test Example 4: herbicidal effect by soil treatment (Table 19, symbol G); type: in vivo, green foxtail (Setaria viridis); conditions: AAH 320 g/ha
Outline: as §2

barnyard grass [4] = assay: Test Example 4: herbicidal effect by soil treatment (Table 19, symbol H); type: in vivo, barnyard grass (Echinochloa crus-galli); conditions: AAH 320 g/ha
From the text: (§3) [Test Example 4] Herbicidal Effect Test by Soil Treatment
(§4) Sterilized diluvial soil was placed in a plastic box having a length of 21 cm, a width of 13 cm, and a depth of 7 cm. The seeds of each of southern crabgrass, green foxtail, barnyard grass, wild oat, blackgrass, Italian ryegrass, windgrass, velvetleaf, redroot pigweed, lambsquarters, chickweed, false cleavers, persian speedwell, corn, soybean, rice, wheat, beet, and rapeseed were sowed in a spot-like manner and covered with the soil having a thickness of about 1.5 cm. Subsequently, the emulsion agent of the compound of the present invention prepared according to Formulation Example 2 was diluted with water so as to achieve a predetermined herbicide amount, and the diluted emulsion agent was uniformly applied to the surface of the soil with a small-sized spray. The plastic box was placed in a greenhouse at 25° C. to 30° C. for growth of the plants. Three weeks after the herbicide application, the effect of the herbicide on each plant was evaluated according to the criteria of Test Example 1.

wild oat [5] = assay: Test Example 4: herbicidal effect by soil treatment (Table 19, symbol I); type: in vivo, wild oat (Avena fatua); conditions: AAH 320 g/ha
From the text: as §3, §4

blackgrass [6] = assay: Test Example 4: herbicidal effect by soil treatment (Table 19, symbol J); type: in vivo, blackgrass (Alopecurus myosuroides); conditions: AAH 320 g/ha
From the text: as §3, §4

Italian ryegrass [7] = assay: Test Example 4: herbicidal effect by soil treatment (Table 19, symbol K); type: in vivo, Italian ryegrass (Lolium multiflorum); conditions: AAH 320 g/ha
Outline: as §2

windgrass [8] = assay: Test Example 4: herbicidal effect by soil treatment (Table 19, symbol L); type: in vivo, windgrass (Apera spica-venti); conditions: AAH 320 g/ha
From the text: as §3, §4

velvetleaf [9] = assay: Test Example 4: herbicidal effect by soil treatment (Table 19, symbol M); type: in vivo, velvetleaf (Abutilon theophrasti); conditions: AAH 320 g/ha
Outline: as §2

redroot pigweed = assay: Test Example 4: herbicidal effect by soil treatment (Table 19, symbol N); type: in vivo, redroot pigweed (Amaranthus retroflexus); conditions: AAH 320 g/ha
Outline: as §2

lambsquarters [10] = assay: Test Example 4: herbicidal effect by soil treatment (Table 19, symbol O); type: in vivo, lambsquarters (Chenopodium album); conditions: AAH 320 g/ha
Outline: as §2

chickweed = assay: Test Example 4: herbicidal effect by soil treatment (Table 19, symbol P); type: in vivo, common chickweed (Stellaria media); conditions: AAH 320 g/ha
From the text: as §3, §4

southern crabgrass [11] = assay: Test Example 5: herbicidal effect by foliage application, plastic box (Table 20, symbol F); type: in vivo, southern crabgrass (Digitaria ciliaris); conditions: foliage application, 320 g/ha, 3 weeks after application
Outline: (§5)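 Plants sown in sterilized diluvial soil and grown 14 days in a greenhouse at 25° C to 30° C, then sprayed on the foliage with the compound's emulsion diluted in water to a predetermined herbicide amount. Injury to weeds and crops scored three weeks after application on a visual rating scale.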

green foxtail [12] = assay: Test Example 5: herbicidal effect by foliage application, plastic box (Table 20, symbol G); type: in vivo, green foxtail (Setaria viridis); conditions: foliage application, 320 g/ha, 3 weeks after application
Outline: as §5

barnyard grass [13] = assay: Test Example 5: herbicidal effect by foliage application, plastic box (Table 20, symbol H); type: in vivo, barnyard grass (Echinochloa crus-galli); conditions: foliage application, 320 g/ha, 3 weeks after application
Outline: as §5

wild oat [14] = assay: Test Example 5: herbicidal effect by foliage application, plastic box (Table 20, symbol I); type: in vivo, wild oat (Avena fatua); conditions: foliage application, 320 g/ha, 3 weeks after application
Outline: as §5

blackgrass [15] = assay: Test Example 5: herbicidal effect by foliage application, plastic box (Table 20, symbol J); type: in vivo, blackgrass (Alopecurus myosuroides); conditions: foliage application, 320 g/ha, 3 weeks after application
Outline: as §5

Italian ryegrass [16] = assay: Test Example 5: herbicidal effect by foliage application, plastic box (Table 20, symbol K); type: in vivo, Italian ryegrass (Lolium multiflorum); conditions: foliage application, 320 g/ha, 3 weeks after application
Outline: as §5

windgrass [17] = assay: Test Example 5: herbicidal effect by foliage application, plastic box (Table 20, symbol L); type: in vivo, windgrass (Apera spica-venti); conditions: foliage application, 320 g/ha, 3 weeks after application
Outline: as §5

velvetleaf [18] = assay: Test Example 5: herbicidal effect by foliage application, plastic box (Table 20, symbol M); type: in vivo, velvetleaf (Abutilon theophrasti); conditions: foliage application, 320 g/ha, 3 weeks after application
Outline: as §5

lambsquarters [19] = assay: Test Example 5: herbicidal effect by foliage application, plastic box (Table 20, symbol O); type: in vivo, lambsquarters (Chenopodium album); conditions: foliage application, 320 g/ha, 3 weeks after application
Outline: as §5

persian speedwell = assay: Test Example 5: herbicidal effect by foliage application, plastic box (Table 20, symbol R); type: in vivo, Persian speedwell (Veronica persica); conditions: foliage application, 320 g/ha, 3 weeks after application
Outline: as §5

Cc1nn(C)c(=O)c(-c2c(-c3ccc(CSC(C)C)cc3)sc3ccccc23)c1O [1-243] was tested, and the “herbicidal effect on H (barnyard grass), rating 0-5” value (barnyard grass [1]) was 5 (Herbicidal rate of 90% or more (almost completely withered)), the “herbicidal effect on D (Chinese sprangletop), rating 0-5” value (Chinese sprangletop) was 4 (Herbicidal rate of 70% or more and less than 90%) and the “herbicidal effect on E (rice flat sedge), rating 0-5” value (rice flat sedge) was 4 (Herbicidal rate of 70% or more and less than 90%). For the same compound, the “F: southern crabgrass, herbicidal effect rating” value (southern crabgrass [2]) was 0 (Herbicidal rate of 5% or less (almost no effect)), the “G: green foxtail, herbicidal effect rating” value (green foxtail [3]) was 0 (Herbicidal rate of 5% or less (almost no effect)) and the “H: barnyard grass, herbicidal effect rating” value (barnyard grass [4]) was 0 (Herbicidal rate of 5% or less (almost no effect)). For the same compound, the “I: wild oat, herbicidal effect rating” value (wild oat [5]) was 0 (Herbicidal rate of 5% or less (almost no effect)), the “J: blackgrass, herbicidal effect rating” value (blackgrass [6]) was 0 (Herbicidal rate of 5% or less (almost no effect)) and the “K: Italian ryegrass, herbicidal effect rating” value (Italian ryegrass [7]) was 0 (Herbicidal rate of 5% or less (almost no effect)). For the same compound, the “L: windgrass, herbicidal effect rating” value (windgrass [8]) was 0 (Herbicidal rate of 5% or less (almost no effect)), the “M: velvetleaf, herbicidal effect rating” value (velvetleaf [9]) was 1 (Herbicidal rate of 5% or more and less than 20%) and the “N: redroot pigweed, herbicidal effect rating” value (redroot pigweed) was 4 (Herbicidal rate of 70% or more and less than 90%). The “O: lambsquarters, herbicidal effect rating” value (lambsquarters [10]) was 3 (Herbicidal rate of 40% or more and less than 70%), the “P: chickweed, herbicidal effect rating” value (chickweed) was 0 (Herbicidal rate of 5% or less (almost no effect)) and the “effect on southern crabgrass (F)” value (southern crabgrass [11]) was 3 (Herbicidal rate of 40% or more and less than 70%). For the same compound, the “effect on green foxtail (G)” value (green foxtail [12]) was 4 (Herbicidal rate of 70% or more and less than 90%), the “effect on barnyard grass (H)” value (barnyard grass [13]) was 4 (Herbicidal rate of 70% or more and less than 90%) and the “effect on wild oat (I)” value (wild oat [14]) was 2 (Herbicidal rate of 20% or more and less than 40%). For the same compound, the “effect on blackgrass (J)” value (blackgrass [15]) was 2 (Herbicidal rate of 20% or more and less than 40%), the “effect on Italian ryegrass (K)” value (Italian ryegrass [16]) was 3 (Herbicidal rate of 40% or more and less than 70%) and the “effect on windgrass (L)” value (windgrass [17]) was 0 (Herbicidal rate of 5% or less (almost no effect)). For the same compound, the “effect on velvetleaf (M)” value (velvetleaf [18]) was 5 (Herbicidal rate of 90% or more (almost completely withered)), the “effect on lambsquarters (O)” value (lambsquarters [19]) was 4 (Herbicidal rate of 70% or more and less than 90%) and the “effect on persian speedwell (R)” value (persian speedwell) was 5 (Herbicidal rate of 90% or more (almost completely withered)).
